Test results taken from patent publication US10202411B2, “3′-substituted methyl or alkynyl nucleosides nucleotides for the treatment of HCV” (priority 2014, dated 2019).
Where two headings read alike, the source gives them in different places.

Tests used:
HCV genotype 1b replicon = test: HCV replicon assay (Zluc luciferase reporter); assay type: cell-based; details: Huh-7-derived Zluc cells, genotype 1b replicon, luciferase, 72 hours, read-out: HCV Replicon EC50
Protocol: Huh-7-derived cell line (Zluc) that harbors an HCV genotype 1b replicon and a luciferase reporter gene was grown in Dulbecco's Modified Eagle Medium (DMEM) supplemented with 10% fetal bovine serum, 2 mM GlutaMAX, 1% MEM nonessential amino acids, 100 IU/mL penicillin, 100 μg/mL streptomycin, and 0.5 mg/mL Geneticin® (G418). For dose response testing the cells were seeded in 96-well plates at 7.5×10^3 cells per well in a volume of 50 μL, and incubated at 37° C./5% CO2. Drug solutions were made up freshly in Huh-7 media as 2× stocks. Ten additional 5-fold dilutions were prepared from these stocks in DMEM without G418. At least three hours after Zluc cells were seeded, drug treatment was initiated by adding 50 μL of drug dilutions to the plates in duplicate. Final concentrations of drug ranged from 100 μM to 0.0000512 μM. Cells were then incubated at 37° C./5% CO2. Alternatively, compounds were tested at two concentrations (1 μM and 10 μM). […] After 72 hours of incubation, the inhibition of HCV replication was measured by quantification of photons emitted after mono-oxygenation of 5′-fluoroluciferin to oxyfluoroluciferin by firefly luciferase. For this, media was removed from the plates via gentle tapping. Fifty microliters of ONE-glo luciferase assay reagent was added to each well. The plates were shaken gently for 3 min at room temperature and luminescence was measured on a Victor^3 V 1420 multilabel counter (Perkin Elmer) with a 1 second read time using a 700 nm cut-off filter. The EC50 values were calculated from dose response curves from the resulting best-fit equations determined by Microsoft Excel and XLfit 4.1 software. When screening at two fixed concentrations, the results were expressed as % inhibition at 1 μM and 10 μM.

Zluc cells = test: Cytotoxicity evaluation, CellTiter-Blue Cell Viability Assay; details: read-out: HCV Replicon CC50; Zluc cells, CellTiter-Blue cell viability
in vitro = details: human

| SMILES | EC50 (HCV genotype 1b replicon) [µM] | CC50 (Zluc cells) [µM] | EC50 (HCV genotype 1b replicon; Hepatitis C virus) [µM] | CC50 (in vitro) [µM] |
| --- | --- | --- | --- | --- |
| Nc1nc(SCCO)c2ncn([C@@H]3O[C@H](CO)[C@@H](CO)[C@H]3O)c2n1 [Compound 209] | > 10 | > 50 | – | – |
| CC(C)OP1(=O)OC[C@H]2[C@@H](O)[C@H](n3ccc(=O)[nH]c3=O)O[C@@H]2CO1 (single isomer, unassigned) [Compound 108 (Diastereomer 2)] | > 10 | > 50 | – | – |
| CC(C)OC(=O)CCCOP1(=O)OC[C@H]2[C@@H](O)[C@H](n3ccc(=O)[nH]c3=O)O[C@@H]2CO1 (single isomer, unassigned) [Compound 112 (Diastereomer 2)] | > 10 | – | – | – |
| CC(=O)OC[C@H]1[C@@H](OC(C)=O)[C@H](n2ccc(N)nc2=O)O[C@@H]1CO [Compound 213] | – | – | > 10 | > 50 |
| CCOC(=O)OC(C)OP(=O)(N[C@H](C(=O)OC)C(C)C)OC[C@H]1O[C@@H](n2cnc3c(OCC)nc(N)nc32)[C@H](O)[C@@H]1CF (mixture of isomers) [Compound 128a Mixture of diastereomers] | – | – | > 10 | > 50 |
| CCOc1nc(N)nc2c1ncn2[C@@H]1O[C@H](CO)[C@@H](CO)[C@H]1O [Compound 227] | – | – | > 10 | > 50 |
| CC(C)OC(=O)[C@@H](C)NP1(=O)OC[C@H]2[C@@H](O)[C@H](n3ccc(=O)[nH]c3=O)O[C@@H]2CO1 (single isomer, unassigned) [Compound 110a (Diastereomer 1)] | – | – | > 10 | > 50 |
| Nc1ccn([C@@H]2O[C@H](CO)[C@@H](CF)[C@H]2O)c(=O)n1 [Compound 204] | – | – | > 10 | > 50 |
| Nc1ccn([C@@H]2O[C@H](CO)[C@@H](CO)[C@H]2O)c(=O)n1 [Compound 206] | – | – | > 10 | > 50 |
| CC(O)[C@H]1[C@@H](O)[C@H](n2ccc(=O)[nH]c2=O)O[C@@H]1CO (single isomer, unassigned) [Compound 211 (Single Isomer)] | – | – | > 10 | > 50 |
| CC(C)OC(=O)CCCOP1(=O)OC[C@H]2[C@@H](O)[C@H](n3ccc(=O)[nH]c3=O)O[C@@H]2CO1 (mixture of isomers) [Compound 112 (Mixture of diastereomers)] | – | – | > 10 | > 50 |
| Nc1ccn([C@@H]2O[C@H](CO)[C@@H](C(F)F)[C@H]2O)c(=O)n1 [Compound 203] | – | – | > 10 | > 50 |
| CC(C)OC(=O)CCCOP(=O)(O)OC[C@H]1O[C@@H](n2ccc(=O)[nH]c2=O)[C@H](O)[C@@H]1CO [Compound 115] | – | – | > 10 | > 50 |
| O=c1ccn([C@@H]2O[C@H](CO[PH](=O)OCc3ccccc3)[C@@H](CO)[C@H]2O)c(=O)[nH]1 (mixture of isomers) [Compound 114 (Mixture of diastereomers)] | – | – | > 10 | > 50 |
| O=c1ccn([C@@H]2O[C@H](CO)[C@@H](CO)[C@H]2O)c(=O)[nH]1 [Compound 205] | – | – | > 10 | > 50 |
| O=c1ccn([C@@H]2O[C@H](CO)[C@@H](CF)[C@H]2O)c(=O)[nH]1 [Compound 202] | – | – | > 10 | > 50 |
| CC(=O)OC[C@H]1[C@@H](OC(C)=O)[C@H](n2ccc(=O)[nH]c2=O)O[C@@H]1CO [Compound 212] | – | – | > 10 | > 50 |
| CC(C)(CO)C(=O)SCCOP1(=O)OC[C@H]2[C@@H](O)[C@H](n3ccc(=O)[nH]c3=O)O[C@@H]2CO1 (mixture of isomers) [Compound 109 (Mixture of diastereomers)] | – | – | > 10 | > 50 |

| SMILES | EC50 (HCV genotype 1b replicon) [µM] | CC50 (Zluc cells) [µM] | EC50 (HCV genotype 1b replicon; Hepatitis C virus) [µM] | CC50 (in vitro) [µM] |
| --- | --- | --- | --- | --- |
| Nc1ncnc2c1ncn2[C@@H]1O[C@H](CO)[C@@H](CF)[C@H]1O [Compound 225] | – | – | > 10 | > 50 |
| CC(C)OP1(=O)OC[C@H]2[C@@H](O)[C@H](n3ccc(=O)[nH]c3=O)O[C@@H]2CO1 (single isomer, unassigned) [Compound 108 (Diastereomer 1)] | – | – | > 10 | > 50 |
| O=c1ccn([C@@H]2O[C@@H]3COP(=O)(OCc4ccccc4)OC[C@H]3[C@H]2O)c(=O)[nH]1 (mixture of isomers) [Compound 113 (Mixture of diastereomers)] | – | – | > 10 | > 50 |
| O=c1ccn([C@@H]2O[C@@H]3COP(=O)(O)OC[C@H]3[C@H]2O)c(=O)[nH]1 [Compound 118] | – | – | > 10 | > 50 |
| CCOC(=O)[C@H](CC(C)C)NP(=O)(N[C@@H](CC(C)C)C(=O)OCC)OC[C@H]1O[C@@H](n2cnc3c(OCC)nc(N)nc32)[C@H](O)[C@@H]1CF [Compound 129a] | – | – | > 10 | > 50 |
| C[C@@H](NP(=O)(OC[C@H]1O[C@@H](n2cnc3c(=O)[nH]c(N)nc32)[C@H](O)[C@@H]1CF)Oc1ccccc1)C(=O)OC1CCCC1 (single isomer, unassigned) [Compound 124a Diastereomer 1] | – | – | > 10 | > 50 |
| O=c1ccn([C@@H]2O[C@@H]3COP(=O)(OCc4ccccc4)OC[C@H]3[C@H]2O)c(=O)[nH]1 (single isomer, unassigned) [Compound 113 (Diastereomer 1)] | – | – | > 10 | > 50 |
| CC(C)(C)C(=O)SCCOP(=O)(OCCSC(=O)C(C)(C)C)OC[C@H]1O[C@@H](n2cnc3c(=O)[nH]c(N)nc32)[C@H](O)[C@@H]1CO [Compound 101] | – | – | > 10 | > 50 |
| CC(C)(CO)C(=O)SCCO[PH](=O)OC[C@H]1O[C@@H](n2ccc(=O)[nH]c2=O)[C@H](O)[C@@H]1CO (mixture of isomers) [Compound 107 (Mixture of diastereomers)] | – | – | > 10 | > 50 |
| Nc1ncnc2c1ncn2[C@@H]1O[C@H](CO)[C@@H](CO)[C@H]1O [Compound 207] | – | – | > 10 | > 50 |
| CC(C)OC(=O)CCCOP1(=O)OC[C@H]2[C@@H](O)[C@H](n3ccc(=O)[nH]c3=O)O[C@@H]2CO1 (single isomer, unassigned) [Compound 112 (Diastereomer 1)] | – | – | > 10 | > 50 |
| Nc1nc2c(ncn2[C@@H]2O[C@H](CO)[C@@H](CF)[C@H]2O)c(=O)[nH]1 [Compound 226] | – | – | > 10 | > 50 |
| O=c1ccn([C@@H]2O[C@H](CO)[C@@H](C(F)F)[C@H]2O)c(=O)[nH]1 [Compound 201] | – | – | > 10 | > 50 |
| CC(C)(CO)C(=O)SCCOP1(=O)OC[C@H]2[C@@H](O)[C@H](n3ccc(=O)[nH]c3=O)O[C@@H]2CO1 (single isomer, unassigned) [Compound 109 (Diastereomer 2)] | > 10 | – | – | – |
| C[C@@H](NP(=O)(OC[C@H]1O[C@@H](n2ccc(=O)[nH]c2=O)[C@H](O)[C@@H]1CO)Oc1ccccc1)C(=O)OCc1ccccc1 (single isomer, unassigned) [Compound 123a Diastereomer 1] | – | – | > 10 | > 50 |
| CC(C)(CO)C(=O)SCCOP1(=O)OC[C@H]2[C@@H](O)[C@H](n3ccc(=O)[nH]c3=O)O[C@@H]2CO1 (single isomer, unassigned) [Compound 109 (Diastereomer 1)] | – | – | > 10 | > 50 |
| C[C@@H](NP1(=O)OC[C@H]2[C@@H](O)[C@H](n3ccc(=O)[nH]c3=O)O[C@@H]2CO1)C(=O)OCc1ccccc1 (single isomer, unassigned) [Compound 120a (Diastereomer 1)] | – | – | > 10 | > 50 |
